Laboratory results as given in patent US20110142914A1, “INHALABLE COMPOSITIONS HAVING ENHANCED BIOAVAILABILITY” (CYTOTECH LABS, LLC, priority 2007, published 2011).

System: IL-12
Assay: Inflammatory response to pulmonary administration: BAL supernatant ELISA for IL-12 elevation
Assay type: in vivo
Details: mice
Procedure: Inflammatory response to the administration of CoQ10 (or the liposomal concentrate of CoQ10 produced in Example 1 above) to the lungs. Surgery is performed on sacrificed mice to expose the pleural cavity and trachea at the throat. […] An aliquot (about 0.75 mL) of phosphate buffered saline is instilled through the cannula into the lungs and removed to wash the bronchial and alveolar surfaces. This process is repeated for a total of three washes. The phosphate buffered saline containing cells is placed into centrifuge vials and centrifuged at about 3000 rpm (MiniSpin Plus, Eppendorf International, Hamburg, Del.). The supernatant is removed leaving the collected cells in the pellet. The supernatant from the BAL (Bronchoalveolar Lavage) is analyzed by enzyme-linked immunosorbent assay (ELISA) for IL-12 elevation (n=2 per sample tested).

inflammation of the lung: not a cause of inflammation of the lung | rise in IL-12 levels (BAL supernatant, ELISA) (n=2 per sample tested): not connected to a rise in IL-12 levels
Structure (SMILES): COC1=C(OC)C(=O)C(C/C=C(\C)CC/C=C(\C)CC/C=C(\C)CC/C=C(\C)CC/C=C(\C)CC/C=C(\C)CC/C=C(\C)CC/C=C(\C)CC/C=C(\C)CCC=C(C)C)=C(C)C1=O [CoQ10, Coenzyme Q10]
